Source: patent US20250161223A1, “PHARMACEUTICAL FORMULATION” (Novartis AG, priority 2022, published 2025)

How the values were obtained:
[1] = Chemical compatibility study of drug substance alone and binary mixtures (HPLC); format: physicochemical; settings: 4 weeks, 40° C./75% RH
Protocol: For HPLC in Table 1, the following conditions were applied: • Mobile Phase A: 0.1% Trifluoroacetic acid in Water. • Mobile Phase B: Water:Acetonitrile(50:950 v/v) • Column: Aquity HSS T3, • Column Dimension: Length—100 mm, Internal Diameter—2.1 mm, Particle size—1.8 μm • Flow Rate: 0.5 mL/min • Detection: 220 nm • Column Temperature: 40° C. • Auto sampler Temperature: 22° C. • Injection Volume: 4 μL • Run Time: 13.0 minutes • Program: Gradient […] All excipients except PVP-K30 may still be suitable for formulation when used in ratios more realistic in a final formulation (see Example 2).

[2] = Solid form conversion of slurry in water; format: physicochemical; settings: 30% w/w slurry in water; after 5 hrs
Source text: WG based core tablets can easily be converted into film-coated tablets with conventional coating operations. […] Looking at an unknown landscape of polymorphs for TNO155, WG was not pursued further.

For `C[C@@H]1OCC2(CCN(c3cnc(Sc4ccnc(N)c4Cl)c(N)n3)CC2)[C@@H]1N` [TNO155-BBA, (3S,4S)-8-(6-amino-5-((2-amino-3-chloropyridin-4-yl)thio)pyrazin-2-yl)-3-methyl-2-oxa-8-azaspiro[4.5]decan-4-amine succinate (1:1) hemihydrate form HA], the “Assay of active ingredient” value ([1]; closed) was 98.6%, the “Assay of active ingredient” value ([1]; open) was 98.7% and the “Solid form stability in slurry” value [2] was “solid form conversion”.
